Measured values as given in ChEMBL document CHEMBL4483862, “Open-source discovery of chemical leads for next-generation chemoprotective antimalarials” (2018).

System: Plasmodium berghei
Test: Luciferase/luciferin-expressing antifolate-resistant parasites were used to infect a culture of HepG2 cells that were pre-incubated with compounds. Infected hepatocytes emit light due to the luciferase reaction. Assay results are presented as the percent inhibition of light emission compared to control. […]
Assay type: functional
Conditions: sporozoite; for IC90: read-out: LUCIFERASE INFECTION ASSAY - IC90
[1] = read-out: LUCIFERASE INFECTION ASSAY - IC50

| SMILES | IC90 [µM] | IC50 [1] [µM] | also measured |
| --- | --- | --- | --- |
| COCc1cccc(C(=O)Nc2ccc3c(c2)OC(F)(F)O3)c1 | > 10 |  | IC50 (HEPG2TOX_HILL_SLOPE 7.81, HEPG2TOX_R_SQUARED 0.0219, PBLUC_HILL_SLOPE 15.2, PBLUC_R_SQUARED 0.505, read-out: LUCIFERASE INFECTION ASSAY - IC50): 9.35 µM |
| O=C(Nc1ccc(Cl)cc1)Nc1cc(-c2cc(-c3ccccc3)c(C(F)(F)F)s2)n[nH]1 | > 7.13 |  | IC50 (PBLUC_HILL_SLOPE 12.1, PBLUC_R_SQUARED 0.235, read-out: LUCIFERASE INFECTION ASSAY - IC50): 6.86 µM |
| O=C(Nc1ncc(Cc2cc(F)cc(F)c2)s1)c1ccc2nc[nH]c2c1 | 6.19 | 2.9 |  |
| CN(Cc1ccccc1N1CCCCC1)C(=O)c1ccc(NC(=O)C2CC2)s1 | > 10 | > 10 |  |
| COc1ccc2cc(/C(C)=N/OC(=O)Nc3cc(Cl)cc(Cl)c3)ccc2c1 | 8.12 | 4.08 |  |
| Cc1ccc2nc(NC(=O)c3cc(F)ccc3C)c(C(=O)NCC(C)C)n2c1 | 3.84 |  | IC50 (HEPG2TOX_HILL_SLOPE 2.69, HEPG2TOX_R_SQUARED 0.883, PBLUC_HILL_SLOPE 9.75, PBLUC_R_SQUARED 0.136, read-out: LUCIFERASE INFECTION ASSAY - IC50): 3.07 µM |
| O=C(NC(CCCc1ccccc1)c1ccccc1)c1ccc(N2CCCS2(=O)=O)cc1 (configuration not stated) | 5.73 | 5.56 |  |
| CC(OC(=O)c1ccc2ncsc2c1)C(=O)N1CCCC1 (configuration not stated) | > 10 | > 10 |  |
| CCSc1nc2scc(C(F)(F)F)n2c(=O)c1C(=O)N1CC(C)CC(C)C1 (configuration not stated) | > 7.87 | > 7.87 |  |
| O=C(Nc1ccc(CN2CCCC2)cc1)c1[nH]nc2ccccc12 | 5.09 |  | IC50 (FFLUC_HILL_SLOPE 0.453, FFLUC_R_SQUARED 0.794, PBLUC_HILL_SLOPE 1.12, PBLUC_R_SQUARED 0.946, read-out: LUCIFERASE INFECTION ASSAY - IC50): 0.718 µM |
| CCOC(=O)c1sc(N(NC(=O)c2cc(C(F)(F)F)cc(C(F)(F)F)c2)C(=O)c2cc(C(F)(F)F)cc(C(F)(F)F)c2)c2c1CC(C)(C)CC2=O | > 4.33 | > 4.33 |  |
| O=C1/C(=C/c2ccc(C(F)(F)F)cc2)CCC/C1=C\c1ccc(C(F)(F)F)cc1 | 7.87 |  | IC50 (HEPG2TOX_HILL_SLOPE 11.7, HEPG2TOX_R_SQUARED 0.984, PBLUC_HILL_SLOPE 3.19, PBLUC_R_SQUARED 0.77, read-out: LUCIFERASE INFECTION ASSAY - IC50): 3.95 µM |
| Oc1cccc(-c2cnc3cnc(/C=C/c4ccccc4)cn23)c1 | > 10.5 |  | IC50 (PBLUC_HILL_SLOPE 3.41, PBLUC_R_SQUARED 0.351, read-out: LUCIFERASE INFECTION ASSAY - IC50): 7.1 µM |
| Clc1ccccc1-c1nc2ccnc(NCc3ccccc3)c2[nH]1 | 4.04 |  | IC50 (HEPG2TOX_HILL_SLOPE 1.64, HEPG2TOX_R_SQUARED 0.835, PBLUC_HILL_SLOPE 9.56, PBLUC_R_SQUARED 0.749, read-out: LUCIFERASE INFECTION ASSAY - IC50): 3.21 µM |
| COc1cccc(Cn2nc(C(=O)NC3CC3)c3c2CCN(C(=O)c2cc4ccccc4[nH]2)C3)c1 | > 7.03 | > 7.03 |  |
| CCOC(=O)N1CCC(NC(=O)/C(=C/c2ccc(OC(F)F)cc2)c2ccccc2)CC1 | 9.96 |  | IC50 (PBLUC_HILL_SLOPE 9.1, PBLUC_R_SQUARED 0.0303, read-out: LUCIFERASE INFECTION ASSAY - IC50): 7.82 µM |
| CC(C)Oc1cccc(C(=O)N2C(C)CCCC2C)c1 (configuration not stated) | > 12 | > 12 |  |
| Cc1ccnc2nc(C(=O)Nc3cc(C(F)(F)F)ccc3N3CCCCCC3)nn12 | 0.413 |  | IC50 (PBLUC_HILL_SLOPE 19, PBLUC_R_SQUARED 0.744, read-out: LUCIFERASE INFECTION ASSAY - IC50): 0.368 µM |
| Cc1ccc(C2NC(=S)NC3=C2C(=O)c2ccccc23)cc1 (configuration not stated) | > 10.8 | > 10.8 |  |
| Cc1ccc2nc(-c3ccc(NC(=O)COC(=O)c4ccccc4C(=O)c4ccccc4)cc3)sc2c1 | > 10 | > 10 |  |
| CCC(C)c1ccc(S(=O)(=O)N2CCN(C(C)C(=O)N3c4ccccc4CC3C)CC2)cc1 (configuration not stated) | > 10 | > 10 |  |
| CSCc1nc(=O)c2c(C)c(C(=O)NN3C(=O)NC(C)(c4ccccc4)C3=O)sc2[nH]1 (configuration not stated) | > 10 | > 10 |  |
| CC(Cc1ccco1)NCc1ccc(-n2ccnc2)cc1 (configuration not stated) | > 10 | > 10 |  |

| SMILES | IC90 [µM] | IC50 [1] [µM] | also measured |
| --- | --- | --- | --- |
| CC(C)(C)c1ccc(C(=O)Nc2ncccc2O)cc1 | 0.647 |  | IC50 (FFLUC_HILL_SLOPE 1.42, FFLUC_R_SQUARED 0.79, PBLUC_HILL_SLOPE 0.554, PBLUC_R_SQUARED 0.72, read-out: LUCIFERASE INFECTION ASSAY - IC50): 0.0122 µM |
| O=C(c1ccc(Sc2ccccc2)c([N+](=O)[O-])c1)N(Cc1ccc2c(c1)OCO2)c1ccc(F)cc1 | > 6.57 | > 6.57 |  |
| CNc1nc2cnc(-c3cccc(Oc4ccccc4)c3)cc2n1Cc1cccnc1 | > 10 | > 10 |  |
| CN(CCO)C(=O)NCCC(c1ccccc1)c1ccccc1 | > 10 | > 10 |  |
| Cc1cc(C(=O)OCC(=O)NC2CCCCCCC2)c(C)n1-c1ccccc1 | > 10 | > 10 |  |
| CCOC(=O)C1=C(CSc2nc(-c3ccc(C)cc3)c(-c3ccc(C)cc3)[nH]2)NC(=O)NC1C (configuration not stated) | > 10 | > 10 |  |
| Cc1nn(C)c(C)c1CC(=O)Nc1ccc(-n2cnc3ccccc32)cc1 | > 10 |  | IC50 (HEPG2TOX_HILL_SLOPE 0.764, HEPG2TOX_R_SQUARED 0.908, PBLUC_HILL_SLOPE 0.735, PBLUC_R_SQUARED 0.618, read-out: LUCIFERASE INFECTION ASSAY - IC50): 1.31 µM |
| CSc1sc(C#N)c(C)c1-c1ccon1 | > 14 |  | IC50 (PBLUC_HILL_SLOPE 9.35, PBLUC_R_SQUARED 0.116, read-out: LUCIFERASE INFECTION ASSAY - IC50): > 14 µM |
| OCc1cccc(-c2cnc3ccc(-c4cccc(OC(F)(F)F)c4)nn23)c1 | 4.21 |  | IC50 (HEPG2TOX_HILL_SLOPE 8.38, HEPG2TOX_R_SQUARED 0.945, PBLUC_HILL_SLOPE 12.7, PBLUC_R_SQUARED 0.452, read-out: LUCIFERASE INFECTION ASSAY - IC50): 3.54 µM |
| COc1cccc2cc(/C=C/c3nc4ccccc4s3)oc12 | 4.1 |  | IC50 (PBLUC_HILL_SLOPE 8.93, PBLUC_R_SQUARED 0.0906, read-out: LUCIFERASE INFECTION ASSAY - IC50): 3.2 µM |
| C#CCSc1nnc(-c2ccc(C(C)(C)C)cc2)n1-c1ccc(C(C)C)cc1 | > 8.47 |  | IC50 (PBLUC_HILL_SLOPE 0.5, PBLUC_R_SQUARED 0.648, read-out: LUCIFERASE INFECTION ASSAY - IC50): > 8.47 µM |
| Cc1cc(-c2cc(C(=O)NCCN3CCOCC3)c3cnn(C(C)C)c3n2)c(C)s1 | > 10 | > 10 |  |
| c1ccc(CNc2nccc3[nH]c(-c4ccccc4)nc23)cc1 | 7.44 |  | IC50 (HEPG2TOX_HILL_SLOPE 2.3, HEPG2TOX_R_SQUARED 0.763, PBLUC_HILL_SLOPE 1.79, PBLUC_R_SQUARED 0.522, read-out: LUCIFERASE INFECTION ASSAY - IC50): 2.19 µM |
| O=C(Nc1cc(Cl)cc(Cl)c1)c1cc(Cl)c(-n2cccc2)c(Cl)c1 | 4.35 |  | IC50 (FFLUC_HILL_SLOPE 1.91, FFLUC_R_SQUARED 0.0412, HEPG2TOX_HILL_SLOPE 16.8, HEPG2TOX_R_SQUARED 0.892, PBLUC_HILL_SLOPE 9.75, PBLUC_R_SQUARED 0.262, read-out: LUCIFERASE INFECTION ASSAY - IC50): 3.47 µM |
| CN1CCN(c2ccc(NC(=O)c3cc4c(s3)-c3ccccc3CC4)cn2)CC1 | 7.61 |  | IC50 (HEPG2TOX_HILL_SLOPE 13, HEPG2TOX_R_SQUARED 0.777, PBLUC_HILL_SLOPE 77.5, 23.4, PBLUC_R_SQUARED 0.0252, 0.733, read-out: LUCIFERASE INFECTION ASSAY - IC50): 7.13 µM |
| Cc1cc(C(=O)C(C)Sc2ncnc3sc(-c4ccccc4)cc23)c(C)n1-c1ccc(OC(F)F)cc1 (configuration not stated) | > 10 |  | IC50 (FFLUC_HILL_SLOPE 3.01, FFLUC_R_SQUARED 0.199, HEPG2TOX_HILL_SLOPE 3.15, HEPG2TOX_R_SQUARED 0.925, PBLUC_HILL_SLOPE 3.1, PBLUC_R_SQUARED 0.165, read-out: LUCIFERASE INFECTION ASSAY - IC50): 7.04 µM |
| COC(=O)c1cccc(NC(S)=Nc2ccc(Cl)c(Cl)c2)c1 | > 9.29 | > 9.29 |  |
| Cc1ccc(NC(=O)/C(=C/c2cccc(F)c2)n2nnnc2C)cc1S(=O)(=O)N1CCCCCC1 | 4.24 |  | IC50 (HEPG2TOX_HILL_SLOPE 12.2, HEPG2TOX_R_SQUARED 0.863, PBLUC_HILL_SLOPE 25.1, PBLUC_R_SQUARED 0.833, read-out: LUCIFERASE INFECTION ASSAY - IC50): 3.89 µM |
| Cn1nc(-c2ccc(S(=O)(=O)NCc3cccnc3)s2)cc1C(F)(F)F | > 8.2 | > 8.2 |  |
| NC(=O)c1cccc(-c2cn3c(-c4cccc(OC(F)(F)F)c4)cnc3cn2)c1 | 8.06 |  | IC50 (PBLUC_HILL_SLOPE 12.4, PBLUC_R_SQUARED 0.473, read-out: LUCIFERASE INFECTION ASSAY - IC50): 6.74 µM |
| CCOC(=O)c1sc(N2CCCC2)c2c1CC(C)(C)CC2=O | > 10.3 | > 10.3 |  |
| Cc1cccc(N2CCN(C(=O)c3ccc4[nH]c(C)c(C)c4c3)CC2)c1C | 1.14 |  | IC50 (FFLUC_HILL_SLOPE 18.8, FFLUC_R_SQUARED 0.39, HEPG2TOX_HILL_SLOPE 1.29, HEPG2TOX_R_SQUARED 0.937, PBLUC_HILL_SLOPE 10.9, PBLUC_R_SQUARED 0.355, read-out: LUCIFERASE INFECTION ASSAY - IC50): 0.935 µM |
| CCCn1c(NC(=O)CSc2ccc3c4c(cccc24)C(=O)c2ccccc2-3)nc2ccccc21 | 3.87 |  | IC50 (PBLUC_HILL_SLOPE 16.8, PBLUC_R_SQUARED 0.332, read-out: LUCIFERASE INFECTION ASSAY - IC50): 3.39 µM |
